The source of these data is PMC8815882, “Screening the pandemic response box identified benzimidazole carbamates, Olorofim and ravuconazole as promising drug candidates for the treatment of eumycetoma” (PLoS Neglected Tropical Diseases, 2022).

Molecules are shown by their SMILES. Read-outs that look alike come from different tables or passages of the source.

The test system of this test is M. mycetomatis genome strain MM55. Nature of the test: CLSI M38-A2 based in vitro susceptibility screening (XTT or resazurin), growth at fixed concentration. It counts as cell-based, Madurella mycetomatis. To be noted: Madurella mycetomatis. A general note: Formazan colour is commonly taken as a measure of viable cells.
Where [1] appears, read: 25 uM, mean of three replicates, read-out: Percentage survival at 25um, 25 uM mean.
[2] abbreviates: 25 uM, replicate A, read-out: Percentage survival at 25um, 25 um A.
The mark [3] stands for this setting: 25 uM, replicate B, read-out: Percentage survival at 25um, 25 uM B.
Where [4] appears, read: 25 uM, replicate C, read-out: Percentage survival at 25um, 25 uM C.
[5] abbreviates: mean of three replicates, read-out: Percentage survival at 100um, 100 uM mean.
The mark [6] stands for this setting: replicate 1, read-out: Percentage survival at 100um, 100 uM A (first replicate column).
The mark [7] stands for this setting: replicate 2, read-out: Percentage survival at 100um, 100 uM A (second replicate column).
Where [8] appears, read: replicate 3, read-out: Percentage survival at 100um, 100 uM A (third replicate column).
The mark [9] stands for this setting: 25 uM, mean of replicates, MM55, read-out: Percentage survival at 25um, 25 uM mean.
The mark [10] stands for this setting: 25 uM, replicate A, MM55, read-out: Percentage survival at 25um, 25 um A.
The mark [11] stands for this setting: 25 uM, replicate B, MM55, read-out: Percentage survival at 25um, 25 uM B.
Where [12] appears, read: 25 uM, replicate C, MM55, read-out: Percentage survival at 25um, 25 uM C.
Setting [13] is: mean of replicates, MM55, read-out: Percentage survival at 100um, 100 uM mean.
[14] abbreviates: replicate 1, MM55, read-out: Percentage survival at 100um, 100 uM A.
The mark [15] stands for this setting: replicate 2, MM55, read-out: Percentage survival at 100um, 100 uM A.
Setting [16] is: replicate 3, MM55, read-out: Percentage survival at 100um, 100 uM A.
Where [17] appears, read: mean of replicates, read-out: Percentage survival at 100um, 100 uM mean.
Setting [18] is: 25 uM, mean of replicates, read-out: Percentage survival at 25um, 25 uM mean.
Where [19] appears, read: replicate 1, read-out: Percentage survival at 100um, 100 uM A.
Where [20] appears, read: replicate 2, read-out: Percentage survival at 100um, 100 uM A.
The mark [21] stands for this setting: replicate 3, read-out: Percentage survival at 100um, 100 uM A.
Where [22] appears, read: first replicate column, read-out: Percentage survival at 100um, 100 uM A.
Where [23] appears, read: second replicate column, read-out: Percentage survival at 100um, 100 uM A.
Where [24] appears, read: third replicate column, read-out: Percentage survival at 100um, 100 uM A.
The mark [25] stands for this setting: 25 uM, mean of three, M. mycetomatis MM55, read-out: Percentage survival at 25um, 25 uM mean.
[26] abbreviates: 25 uM, replicate A, M. mycetomatis MM55, read-out: Percentage survival at 25um, 25 um A.
The mark [27] stands for this setting: 25 uM, replicate B, M. mycetomatis MM55, read-out: Percentage survival at 25um, 25 uM B.
Setting [28] is: 25 uM, replicate C, M. mycetomatis MM55, read-out: Percentage survival at 25um, 25 uM C.
Setting [29] is: mean of three, M. mycetomatis MM55, read-out: Percentage survival at 100um, 100 uM mean.
The mark [30] stands for this setting: replicate 1, M. mycetomatis MM55, read-out: Percentage survival at 100um, 100 uM A (first replicate column).
The mark [31] stands for this setting: replicate 2, M. mycetomatis MM55, read-out: Percentage survival at 100um, 100 uM A (second replicate column).
Setting [32] is: replicate 3, M. mycetomatis MM55, read-out: Percentage survival at 100um, 100 uM A (third replicate column).

In the case of `Nc1cc(-c2nc3ccccc3[nH]2)n[nH]c1=O` [MMV975972], the activity at 25 µM runs as follows: under setting [1], 97%; under setting [2], 99%; under setting [3], 101%; under setting [4], 90.7%. Also, the activity at 100 µM runs as follows: under setting [5], 95.6%; under setting [6], 105%; under setting [8], 91.4%. Under setting [7], the Percent fungal survival at 100 µM came to 90.7%.
In the case of `CCCC1(C2CC2)c2cc(Cl)ccc2NC(=O)N1C` (stereo not shown) [MMV1782113], the activity at 25 µM stood at 68.5% under setting [9], 67.5% under setting [10], 76.8% under setting [11] and 61.2% under setting [12]. For the same compound, the activity at 100 µM turned out to be 56.1% under setting [13], 52.9% under setting [14], 56.4% under setting [15] and 58.9% under setting [16].
Regarding `C[C@H]1CC[C@]2(NC1)O[C@H]1C[C@H]3[C@@H]4CC[C@H]5C[C@@H](O)CC[C@]5(C)[C@H]4CC[C@]3(C)[C@H]1[C@@H]2C` [MMV003069], the activity at 25 µM under setting [2] came out at 98.3%; the activity at 25 µM (read-out: Percentage survival at 25um, 25 uM B) was 98.8%; the activity at 25 µM (read-out: Percentage survival at 25um, 25 uM C) was 91.1%; the activity at 25 µM (read-out: Percentage survival at 25um, 25 uM mean) was 96.1%. Further, the activity at 100 µM by setting is: under setting [17], 85.8%; under setting [6], 80.2%; under setting [7], 92.8%; under setting [8], 84.2%.
Regarding `Nc1nc(NC2Cc3ccc(F)cc3C2)nc(N2CCCCC2)n1` (stereo not shown) [MMV1580839], the activity at 25 µM by setting is: under setting [18], 40.6%; under setting [2], 58.8%; under setting [3], 53.9%; under setting [4], 9.06%. Moreover, the activity at 100 µM is 1.55% under setting [17], -0.246% under setting [19], 0.453% under setting [20] and 4.45% under setting [21].
For `COc1ccc2c(c1OC)C(=O)OC2C1c2c(cc3c(c2OC)OCO3)CCN1C` (stereo not shown) [MMV002780], the activity at 25 µM under setting [1] turned out to be 82%, the activity at 25 µM under setting [2] came out at 86.6%, the activity at 25 µM under setting [3] was found to be 81.3% and the activity at 25 µM under setting [4] amounted to 78.1%. For the same compound, the activity at 100 µM by setting is: under setting [22], 72.9%; under setting [5], 72.6%; under setting [23], 68.2%; under setting [24], 76.7%.
Turning to `CC(C)n1cnc2c(NCc3ccccc3)nc(NCc3ccccc3)nc21` [MMV1579780], the activity at 25 µM by setting is: under setting [18], 62.7%; under setting [2], 64.2%; under setting [3], 61.7%; under setting [4], 62%. In addition, the activity at 100 µM is, setting by setting: under setting [17], 61%; under setting [19], 60.4%; under setting [20], 63.1%; under setting [21], 59.6%.
As for `CC1CN(c2ncnc3c2c(-c2ccccc2)cn3-c2ccc(F)cc2)CC(C)O1` (stereo not shown) [MMV093250], the activity at 25 µM under setting [25] came to 63.7%, the activity at 25 µM under setting [26] came to 69.5%, the activity at 25 µM under setting [27] amounted to 65.3% and the activity at 25 µM under setting [28] is 56.2%. Further, the activity at 100 µM worked out at 70% under setting [29], 65.7% under setting [30] and 63.6% under setting [32]. Moreover, the Percent fungal survival at 100 µM under setting [31] is 80.7%.
For `CC(C)Oc1ccc(-n2cnc3cc(/C=C\c4ccc(C(C)(C)O)cc4)ccc32)cc1` [MMV1782350], the activity at 25 µM reads like this: under setting [9], 60.8%; under setting [10], 60%; under setting [11], 63%; under setting [12], 59.5%. Also, the activity at 100 µM by setting is: under setting [13], 55.5%; under setting [14], 57.8%; under setting [15], 56.4%; under setting [16], 52.3%.
On to `CSc1ccc2c(c1)C(N1CCN(C)CC1)Cc1ccccc1S2` (stereo not shown) [MMV002505], for which the activity at 25 µM under setting [9] amounted to 38.4%, the activity at 25 µM under setting [10] came to 7.34%, the activity at 25 µM under setting [11] was found to be 101% and the activity at 25 µM under setting [12] stood at 6.61%. The activity at 100 µM reads like this: under setting [13], 3.79%; under setting [14], 3.82%; under setting [15], -0.0923%; under setting [16], 7.64%.
Regarding `CCCCc1ccc(-c2nc(C)c(C(=O)OC)s2)cc1` [MMV1634392], the activity at 25 µM is 77.2% under setting [9], 84.6% under setting [10], 81.9% under setting [11] and 65.1% under setting [12]. Also, the activity at 100 µM under setting [13] is 65.3%, the activity at 100 µM under setting [14] is 48.8%, the activity at 100 µM under setting [15] was 54.8% and the activity at 100 µM under setting [16] is 92.3%.
Turning to `O=c1[nH]c(=O)n(Cc2cccc(Oc3ccccc3)c2)cc1Nc1ccccc1` [MMV1782107], the activity at 25 µM by setting is: under setting [1], 91.7%; under setting [2], 75.5%; under setting [3], 83.9%; under setting [4], 116%. Further, the activity at 100 µM runs as follows: under setting [22], 90.6%; under setting [5], 71.8%; under setting [23], 77.9%; under setting [24], 47.1%.
Turning to `CN1c2ccc(Cl)cc2N(c2ccccc2)C(=O)c2cn(Cc3ccc(CN4CCOCC4)cc3)nc21` [MMV1782222], the activity at 25 µM was 61.1% under setting [18], 58.9% under setting [2], 64.9% under setting [3] and 59.6% under setting [4]. Further, the activity at 100 µM came to 60.2% under setting [17], 52.1% under setting [6] and 58.2% under setting [8]. Further, the Percent fungal survival at 100 µM under setting [7] is 70.5%.
As to `CCc1nc(N)nc(N)c1C#CC(C)c1cc(OC)cc(-c2ccncc2)c1` (stereo not shown) [MMV1580844], the activity at 25 µM amounted to 31.6% under setting [25], 86.9% under setting [26], 5.16% under setting [27] and 2.83% under setting [28]. For the same compound, the activity at 100 µM is, setting by setting: under setting [29], -1.56%; under setting [30], -1.7%; under setting [32], -1.98%. Also, under setting [31], the Percent fungal survival at 100 µM is -1.01%.
In the case of `O=C1NC(=O)C(Br)=C1Br` [MMV1578554], the activity at 25 µM under setting [18] is 76.9%, the activity at 25 µM under setting [2] was 80.1%, the activity at 25 µM under setting [3] was 86.3% and the activity at 25 µM under setting [4] was found to be 64.3%. Besides, the activity at 100 µM runs as follows: under setting [17], 43.3%; under setting [19], -3.69%; under setting [20], 60.2%; under setting [21], 73.5%.
Consider `O=C(Nc1ncc(Cc2cccc3ccccc23)s1)C1CCCCC1` [MMV1593532], for which the activity at 25 µM under setting [18] came to 92.1%, the activity at 25 µM under setting [2] stood at 93.7%, the activity at 25 µM under setting [3] was 94.5% and the activity at 25 µM under setting [4] was found to be 88%. The activity at 100 µM was 93.9% under setting [17], 107% under setting [19], 89% under setting [20] and 85.1% under setting [21].
With `CN(C)CC(=O)Nc1ccc2[nH]c(=O)c3ccccc3c2c1` [MMV1580480], the activity at 25 µM reads like this: under setting [9], 94.3%; under setting [10], 106%; under setting [11], 107%; under setting [12], 70.4%. Further, the activity at 100 µM under setting [13] stood at 76.4%, the activity at 100 µM under setting [14] is 87.1%, the activity at 100 µM under setting [15] is 63.4% and the activity at 100 µM under setting [16] is 78.7%.
For `CC(=O)N[C@H](C)C(=O)N[C@H](Cc1ccccc1)C(=O)O` [MMV1580845], the activity at 25 µM came to 87.9% under setting [1], 86.4% under setting [2], 86.8% under setting [3] and 90.5% under setting [4]. For the same compound, the activity at 100 µM by setting is: under setting [5], 86.9%; under setting [6], 88.3%; under setting [8], 88.3%. Also, the Percent fungal survival at 100 µM under setting [7] turned out to be 84.1%.
